Experimental data taken from patent EP0019524A1, “Process for preparing flavilium derivatives, products obtained by the processus and their therapeutical application” (SOCIETE DE RECHERCHES INDUSTRIELLES SORI, priority 1979, dated 1980).

Tests used:
[1] = Acute toxicity (LD50), method of Litchfield et al.; details: in vivo, ip; mouse, intraperitoneal route; read-out: DL-50 I.P. souris
Procedure: La toxicité a été déterminée chez la souris par voie intrapéritonéale selon la méthode de J.T. LITCHFIELD et al., J. Pharmacol. Exptl. Therap. (1949), 96, 99. La DL-50 I.P. souris des produits III et IV est de 750 mg/kg. Les produits de formule (I) ne sont donc pas toxiques.

[2] = tested on: hématies; experiment: Erythrocyte deformability: filtration rate of erythrocyte suspension and plasma (Schmid-Schönbein technique) in hyperlipidemic monkeys; assay type: in vivo, singe; details: monkeys on hyperlipidic diet, 20 mg/kg per os per day for 8 months, mean, 5 µ filter, 50 mm water pressure
From the text: La déformabilité des hématies a été mesurée selon la technique de SCHMID-SCHONBEIN et al., Blut (1973), 26, 369-379, par filtration (diamètre des pores du filtre : 5µ) sous une pression constante de 50 mm d'eau, d'une suspension d'hématies amenée à un hématocrite de 10% par dilution dans un plasma autologue. La phase de suspension est également filtrée selon la même technique. On peut apprécier ainsi l'intensité de certaines maladies car le taux de filtration de la suspension d'hématies et/ou de la phase de plasma est modifié par les maladies du métabolisme telles que le diabète et l'hyperlipidémie.
Le taux de filtration des hématies a été déterminé in vivo chez le singe rendu hyperlipidémique après absorption d'un régime gras. Les composés à tester ont été administrés per os à la dose quotidienne de 20 mg/kg pendant 8 mois à des lots de singes : un lot recevant un régime normal, un lot recevant un régime gras, les autres lots recevant le régime gras et un des composés à tester. Les résultats donnés dans le tableau ci-après sont exprimés sous forme d'une moyenne et représentent la vitesse de filtration des hématies ou du plasma en µl/s. La signification statistique des résultats est très bonne (p <( 0,001).

[3] = tested on: patients; experiment: Clinical trial in hyperlipidemic and hypertensive patients; assay type: in vivo; details: 21 days
Procedure: On a résumé enfin les résultats des essais cliniques qui ont été entrepris avec le composé III pendant 21 jours sur 65 patients (30 patients étant hyperlipidiques et les 35 autres patients souffrant d'hypertension artérielle), un lot de patients recevant 3 comprimés ou 3 glossettes par jour renfermant chacun 10 mg de composé III, un autre lot recevant une injection quotidienne de 10 mg de composé III. La tolérance de ce produit s'est révélée excellente puisque la condition de 51 patients (c'est-à-dire 78,4%) a été considérablement améliorée.

[4] = of 65 patients (30 hyperlipidemic, 35 arterial hypertension), 3 x 10 mg oral/sublingual or 10 mg injection per day

With `COc1cc(OC)c2cc(O[C@@H]3O[C@H](CO[C@@H]4O[C@@H](C)[C@H](O)[C@@H](O)[C@H]4O)[C@@H](O)[C@H](O)[C@H]3O)c(-c3ccc(OC)c(OC)c3)[o+]c2c1` [composé IV, chlorurede 3-[6-0-(6-désoxy-α-L-mannopyranosyl)-β-D-glucopyranosyloxy]-3',4', 5,7-tétraméthoxy-flavylium] the LD50 [1] was 750 mg/kg.
For `C[C@@H]1O[C@@H](OC[C@H]2O[C@@H](Oc3cc4c(O)cc(O)cc4[o+]c3-c3ccc(O)c(O)c3)[C@H](O)[C@@H](O)[C@@H]2O)[C@H](O)[C@H](O)[C@H]1O` [composé III, chlorurede 3-[6-0-(6-désoxy-α-L-mannopyranosyl)-β-D-glucopy-ranosyloxy]-3',4',5,7-tétrahydroxy-flavylium], the LD50 [1] was 750 mg/kg, the “Vitesse de filtration du plasma” value [2] was 55,92 ± 4,78 µl/s and the “Vitesse de filtration des hématies” value ([2]; hematocrit 10%) was 43,97 ± 2,30 µl/s. The tolérance ([3]; 65 patients, 3 tablets or sublingual tablets of 10 mg per day, or one daily injection of 10 mg) was “excellente”, the “patients dont la condition a été considérablement améliorée” value [3, 4] was 78,4% and the “patients dont la condition a été considérablement améliorée (nombre)” value [3, 4] was 51 patients.
